{"source": "paper PMC7983974", "about": "(Basic & Clinical Pharmacology & Toxicology, 2020)", "key": {"UGT2B4": {"biological_target": "T1, UGT2B4 (Homo sapiens, UniProt P06133)", "T1 sequence (P06133 24-528)": "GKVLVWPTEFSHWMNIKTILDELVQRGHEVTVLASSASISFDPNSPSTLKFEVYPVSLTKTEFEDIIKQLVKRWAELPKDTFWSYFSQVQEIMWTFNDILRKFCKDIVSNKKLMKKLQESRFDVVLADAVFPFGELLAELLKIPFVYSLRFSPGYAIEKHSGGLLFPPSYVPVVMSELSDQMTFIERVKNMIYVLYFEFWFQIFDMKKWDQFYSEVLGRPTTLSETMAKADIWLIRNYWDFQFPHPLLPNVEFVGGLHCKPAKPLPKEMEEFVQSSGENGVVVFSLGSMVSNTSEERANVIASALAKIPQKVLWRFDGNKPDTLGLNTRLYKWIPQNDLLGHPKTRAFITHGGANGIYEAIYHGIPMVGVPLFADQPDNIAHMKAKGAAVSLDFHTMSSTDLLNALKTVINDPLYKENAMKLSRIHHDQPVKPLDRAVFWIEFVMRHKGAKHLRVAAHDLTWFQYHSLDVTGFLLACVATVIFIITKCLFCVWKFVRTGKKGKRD", "assay": "M1 formation from molidustat by recombinant UGT2B4", "assay_type": "in vitro ADME", "details": "1 and 10 µmol L^−1"}, "UGT2B15": {"biological_target": "T2, UGT2B15 (Homo sapiens, UniProt P54855)", "T2 sequence (P54855 24-530)": "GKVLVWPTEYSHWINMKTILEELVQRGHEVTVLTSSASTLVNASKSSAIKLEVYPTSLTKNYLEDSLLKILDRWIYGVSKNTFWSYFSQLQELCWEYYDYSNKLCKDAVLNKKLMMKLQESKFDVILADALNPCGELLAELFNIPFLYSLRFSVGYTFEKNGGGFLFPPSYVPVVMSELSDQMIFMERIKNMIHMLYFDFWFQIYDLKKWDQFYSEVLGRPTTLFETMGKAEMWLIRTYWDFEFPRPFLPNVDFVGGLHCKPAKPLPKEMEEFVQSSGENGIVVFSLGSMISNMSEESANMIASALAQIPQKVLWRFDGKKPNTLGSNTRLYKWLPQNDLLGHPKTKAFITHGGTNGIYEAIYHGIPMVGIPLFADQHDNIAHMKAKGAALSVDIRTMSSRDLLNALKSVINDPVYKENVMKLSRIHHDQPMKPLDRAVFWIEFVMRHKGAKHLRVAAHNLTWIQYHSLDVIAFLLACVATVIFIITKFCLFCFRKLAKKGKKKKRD", "assay": "M1 formation from molidustat by recombinant UGT2B15", "assay_type": "in vitro ADME", "details": "1 and 10 µmol L^−1"}, "UGT2B17": {"biological_target": "T3, UGT2B17 (Homo sapiens, UniProt O75795)", "T3 sequence (O75795 24-530)": "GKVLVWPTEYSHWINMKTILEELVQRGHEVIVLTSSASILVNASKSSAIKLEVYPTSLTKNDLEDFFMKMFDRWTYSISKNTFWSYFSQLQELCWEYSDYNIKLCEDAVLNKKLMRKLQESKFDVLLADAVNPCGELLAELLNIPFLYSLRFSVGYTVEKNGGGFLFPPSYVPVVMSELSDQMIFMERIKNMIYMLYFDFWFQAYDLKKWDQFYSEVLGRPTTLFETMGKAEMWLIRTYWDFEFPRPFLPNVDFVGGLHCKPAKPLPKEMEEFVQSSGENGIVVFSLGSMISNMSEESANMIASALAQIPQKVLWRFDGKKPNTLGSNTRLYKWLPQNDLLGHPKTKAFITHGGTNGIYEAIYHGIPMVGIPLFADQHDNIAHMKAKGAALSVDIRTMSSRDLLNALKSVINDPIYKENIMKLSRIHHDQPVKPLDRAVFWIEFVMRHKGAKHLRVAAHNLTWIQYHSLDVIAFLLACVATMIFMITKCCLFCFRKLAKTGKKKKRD", "assay": "M1 formation from molidustat by recombinant UGT2B17", "assay_type": "in vitro ADME", "details": "1 and 10 µmol L^−1"}, "[1]": {"test_system": "UGT-mediated glucuronidation of molidustat", "assay": "Enzyme kinetics of molidustat glucuronidation in pooled human liver microsomes", "assay_type": "in vitro ADME", "details": "human, pooled human liver microsomes, pH 7.4"}, "[2]": {"test_system": "pooled human liver microsomes", "assay": "Enzyme kinetics of molidustat glucuronidation in pooled human liver microsomes", "assay_type": "in vitro ADME", "details": "human liver microsomes, Hill equation"}, "[3]": {"assay": "Clinical DDI study: safety and tolerability", "assay_type": "in vivo, human", "details": "n = 14"}, "[4]": {"details": "human, cited from earlier work; for absolute oral bioavailability: oral (IR tablet)"}}, "note": "Like-named read-outs stand apart in the source and are kept apart here."}
{"smiles": "O=c1c(-n2ccnn2)c[nH]n1-c1cc(N2CCOCC2)ncn1", "note": "[Molidustat]", "values": [{"measurement": "activity for glucuronidation of molidustat", "setting": "UGT2B4", "value": "lacked measurable activity"}, {"measurement": "activity for glucuronidation of molidustat", "setting": "UGT2B15", "value": "lacked measurable activity"}, {"measurement": "activity for glucuronidation of molidustat", "setting": "UGT2B17", "value": "lacked measurable activity"}, {"measurement": "Km", "setting": "[1]", "value": 90, "unit": "µM"}, {"measurement": "estimated S50", "setting": "[2]", "value": 90, "unit": "µmol/L"}, {"measurement": "Abdominal pain (participants with TEAE)", "setting": "[3]", "value": "0 n (%)"}, {"measurement": "Headache (participants with TEAE)", "setting": "[3]", "value": "0 n (%)"}, {"measurement": "Participants with ≥ 1 TEAE", "setting": "[3]", "value": "0 n (%)"}, {"measurement": "Jaundice (participants with TEAE)", "setting": "[3]; considered related to atazanavir", "value": "0 n (%)"}, {"measurement": "absolute oral bioavailability", "setting": "[4]", "value": "about 60%"}, {"measurement": "absolute oral bioavailability", "setting": "[4]; listed as molidustat", "value": 59, "unit": "%"}, {"measurement": "fraction of the dose excreted as molidustat via faeces", "setting": "[4]", "value": "~ 6%"}, {"measurement": "fraction of the dose excreted as molidustat via urine", "setting": "[4]", "value": "~ 4%"}]}
